Measurements published in PMC9969401, “Discovery of 2-(3-Benzamidopropanamido)thiazole-5-carboxylate Inhibitors of the Kinesin HSET (KIFC1) and the Development of Cellular Target Engagement Probes” (Journal of Medicinal Chemistry, 2023).

Legend:
[1] = tested on: centrosome-amplified (4NCA) DLD1 cells; assay: Multipolar spindle assay (4NCA cell line); assay type: cell-based, human
How it was run: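 4NCA cells came from 2N DLD1 treated 24 h with 2 μΜ DCB then released 24 h; 4N DLD1 used directly. After 3.5 h arrest with 8 μM pro-TAME, compounds were added with 8 μM MG-132; fixed cells stained for aurora A, pHH3 and DAPI, imaged, and percentage multipolar (>2 poles) mitoses scored.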

[2] = target: T1, recombinant full-length HSET (Homo sapiens, UniProt Q9BW19); assay: ADP-Glo HSET assay (500 μM ATP); assay type: biochemical; conditions: high ATP concentration of 500 μM; single determination or mean of two
T1 construct: 5 nM full-length human N-terminal His-tag HSET; His-tag (N)
T1 sequence (Q9BW19 1-673): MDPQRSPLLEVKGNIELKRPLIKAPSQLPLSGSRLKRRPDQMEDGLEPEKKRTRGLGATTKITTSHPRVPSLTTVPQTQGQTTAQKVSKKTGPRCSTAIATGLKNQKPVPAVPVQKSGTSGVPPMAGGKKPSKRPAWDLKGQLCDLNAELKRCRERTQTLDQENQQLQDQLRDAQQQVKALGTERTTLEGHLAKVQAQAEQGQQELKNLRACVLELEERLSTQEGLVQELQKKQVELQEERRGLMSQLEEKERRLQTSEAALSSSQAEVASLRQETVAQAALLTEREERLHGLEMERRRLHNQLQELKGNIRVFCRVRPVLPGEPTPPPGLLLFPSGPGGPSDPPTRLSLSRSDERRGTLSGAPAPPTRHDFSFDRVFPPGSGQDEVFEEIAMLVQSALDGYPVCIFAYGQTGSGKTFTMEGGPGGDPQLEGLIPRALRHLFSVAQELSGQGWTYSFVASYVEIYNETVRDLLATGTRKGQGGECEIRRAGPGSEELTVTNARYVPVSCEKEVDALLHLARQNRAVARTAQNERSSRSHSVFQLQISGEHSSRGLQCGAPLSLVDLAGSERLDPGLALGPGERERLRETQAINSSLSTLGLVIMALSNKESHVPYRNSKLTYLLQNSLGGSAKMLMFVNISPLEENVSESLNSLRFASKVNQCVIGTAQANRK
Description: The HSET or Eg5 ATPase activity was measured using the ADP-Glo Kinase Assay kit (Promega, V9102). The assays were run using final concentrations of 5 nM full-length human N-terminal His-tag HSET or 4 nM GST-tagged Eg5 motor domain protein (Cytoskeleton, EG01) and an assay buffer containing 20 mM HEPES pH 6.8, 10 mM MgCl2, 0.25 mM EGTA, 0.4 mM Triton X-100, and 1 mM DTT. Preformed microtubules (Universal Biologicals Cambridge, bovine MT001-XL, or porcine MT002-XL), which were reconstituted in 15 mM PIPES pH 7, 1 mM MgCl2, and 20 μM paclitaxel, were present at a final assay concentration of 70 μg/mL. A reaction volume of 5 μL was used in Proxiplate 384 plus white assay plates (PerkinElmer, 6008280). To measure compound inhibition, 100 nL of compound dissolved in DMSO or DMSO alone was preincubated with the HSET and microtubules for 10 min before 3 μM Ultra-Pure ATP was added to start the ATPase reaction for the 3 μM ATP HSET assay. For the 500 μM ATP HSET assay, the addition of 500 μM Ultra-Pure ATP was used. For the Eg5 ATPase assay, 4.8 μM Ultra-Pure ATP was used. All reactions were incubated at 25 °C for 80 min and then stopped by the addition of 5 μL of the ADP-Glo reagent. 10 μL of Kinase Detection Reagent was then added after a further 45 min of incubation. The luminescence was read after 45 min on a PheraStar FSX plate reader (BMG Labtech). The data processing was performed using Dotmatics Studies software package. Percentage inhibition was determined based on normalization to high controls (0% inhibition, all reagents with 100 nL of DMSO alone) and low controls (100% inhibition […], without HSET). The IC50 values for each compound were determined using a four-parameter logistic curve fit of % inhibition versus concentration.

[3] = 15 μM, 4NCA DLD1 cells (Table 4)
[4] = 15 µM, 4NCA cells, supplementary CSV

Row | IC50 [2] [nM] | SMILES | % multipolarity above baseline @ 15 μM (4NCA cells) [1, 3] [%] | % multipolarity above baseline @ 15 μM (4NCA cells) [1, 4] [%] | increase in mitotic spindle multipolarity (4NCA) ([1]; 15 μM, centrosome-amplified (4NCA) DLD1 cell line) [%]
1 | 51 | CCCOC(=O)c1sc(NC(=O)CCNC(=O)c2cccc(-c3noc(C)n3)c2)nc1C [Compound 32, Propyl 4-Methyl-2-(3-(3-(5-methyl-1,2,4-oxadiazol-3-yl)benzamido)propanamido)thiazole-5-carboxylate] | 21 | 21 | 21
2 | 66 | CCCOC(=O)c1sc(NC(=O)C[C@H](CCCNC)NC(=O)c2cccc(-c3noc(C)n3)c2)nc1C [Compound 35, Propyl (S)-4-Methyl-2-(3-(3-(5-methyl-1,2,4-oxadiazol-3-yl)benzamido)-6-(methylamino)hexanamido)thiazole-5-carboxylate] | 11 | 11 | –
3 | 90 | CCCOC(=O)c1sc(NC(=O)C[C@H](CCCN(C)C)NC(=O)c2cccc(-c3noc(C)n3)c2)nc1C [Compound 36, Propyl (S)-2-(6-(Dimethylamino)-3-(3-(5-methyl-1,2,4-oxadiazol-3-yl)benzamido)hexanamido)-4-methylthiazole-5-carboxylate] | 15 | 15 | –
